Read-outs that look alike come from different tables or passages of the source.
Legend:
[1] = Single-dose toxicokinetic and tolerability study of prodrugs in dogs; type: in vivo, dog; details: for concentration at 24 h / AUC(0-inf) / half-life: dog, plasma; for concentration at 24 h: oral, read-out: C24h; for AUC(0-inf) / half-life: po; for half-life: read-out: T1/2 (converted)
Method: A multi-phase study was conducted to evaluate the tolerability of the prodrug, Iab (monolysine salt) at dosages of 24, 90, or 240 mg/kg (free acid, molar equivalent to 19, 71, or 190 mg/kg of parent IVa, respectively) and the toxicokinetics of lab and IVa (4). Iab was administered to two female dogs/group once daily either as an aqueous solution (24 or 90 mg/kg) or dry-filled capsules (24, 90 [once and twice daily] or 240 mg/kg). The endpoints were: clinical signs, body weight, food consumption, and plasma toxicokinetics of lab and IVa. In all cases, a 1-week washout period was used between doses for all phases of the study. […]
On day 1, Icb was administered to one dog/sex/group once daily in dry-filled capsules at the above dosages. A 1-week washout period was used between doses in the study. On day 8, Icb was administered to one dog/sex/group once daily as an aqueous solution at 25 mg/kg or twice daily in dry-filled capsules at 46 or 125 mg/kg BID.

[2] = Single-dose oral toxicokinetic study of prodrugs in rats; type: in vivo, rat; details: for concentration at 24 h / Cmax / AUC / half-life: male, Sprague Dawley, rat, plasma; for concentration at 24 h: oral, read-out: C24h; for Cmax / AUC / half-life: po; for AUC: read-out: AUC from zero to ∞; for half-life: read-out: T1/2 (converted)
Method: A 1-day oral toxicokinetic study in rats was conducted using the prodrug Iab (monolysine salt). Iab was administered at dosages of 16, 72, and 267 mg/kg (free acid) by oral gavage to three male rats/group using water as the vehicle (solution formulation). The dosages of prodrug free acid correspond to IVa (parent) molar equivalent dosages of 13, 57, and 211 mg/kg, respectively. The endpoint evaluated was plasma toxicokinetics of Iab and IVa in the individual rats.
A 1-day oral toxicokinetic study in rats was conducted by using the prodrug Ibb (monolysine salt). Ibb was administered at dosages of 19, 64, and 236 mg/kg (free acid) by oral gavage to three male rats/group using water as the vehicle (solution formulation).
A 1-day oral toxicokinetic study in rats was conducted using the prodrug Icb (disodium salt). Icb was administered at dosages of 5, 25, and 200 mg/kg (free acid) by oral gavage to three male rats/group using water as the vehicle (solution formulation).

[3] = IV and PO pharmacokinetic studies of prodrug salts (Iab, Ibb, Icb) in the rat, with historical parent data; type: in vivo, Sprague-Dawley rats; details: for AUC: read-out: AUCtot; for Cmax: read-out: Cmax; for half-life: read-out: T1/2 (converted)
Method: (§1) All blood samples (0.3 mL) were colleted in microtainers containing K2EDTA (Becton Dickinson, Franklin Lakes, N.J.) and placed on chipped ice. After centrifugation, plasma was separated and stored at −20° C. until analysis. The mono-lysine salt of Iab (Form 3, Lot 1) was used for the pharmacokinetic studies. The dosing solutions of Iab were prepared in either sterile water (for IV administration in dogs and monkeys) or distilled water (for all other dose administration).
Male Sprague-Dawley rats (300-350 g, Hilltop Lab Animals, Inc., Scottsdale, Pa.) with cannulas implanted in the jugular vein were used. The rats were fasted overnight in the PO pharmacokinetic studies. Blood samples were collected from the jugular vein.
In the IV study, Iab was delivered at 1.4 mg/kg (free acid, or 1.1 mg/kg of IVa equivalent) as a bolus over 0.5 min (n=3).
In the PO study, Iab was administered at 7.9 mg/kg (free acid, or 6.3 mg/kg of IVa equivalent) by oral gavage (n=3). The concentration of the dosing solution was 4.0 mg/mL, and the dosing volume was 2 mL/kg.
The pharmacokinetic parameters of Iab and IVa were calculated by Non-Compartmental Analysis using the […]™ software program (version 4.0.2, InnaPhase Co., Philadelphia, Pa.). The Cmax and Tmax values were recorded directly from experimental observations. The AUC0-n and AUCtot values were calculated using the mixed log-linear trapezoidal summations. The total body clearance (Cl), mean residence time (MRT), and the steady state volume of distribution (Vss) were also calculated after intravenous administration. The absolute oral bioavailability (expressed as %) was estimated by taking the ratio of dose-normalized AUC values after oral doses to those after intravenous doses.
as §1, with “Ibb” for “Iab”, “3)” for “3, Lot 1)”
(§2) The Cmax and Tmax values were recorded directly from experimental observations. The AUC0-n and AUCtot values were calculated using the mixed log-linear trapezoidal summations. The total body clearance (Cl), mean residence time (MRT), and the steady state volume of distribution (Vss) were also calculated after intravenous administration. The absolute oral bioavailability (expressed as %) was estimated by taking the ratio of dose-normalized AUC values after oral doses to those after intravenous doses.
In the IV study, Icb was delivered at 1.4 mg/kg (free acid, or 1.1 mg/kg of IVe equivalent) as a bolus over 0.5 min (n=3).
In the PO study, Icb was administered at 6.9 mg/kg (free acid, or 5.6 mg/kg of IVe equivalent) by oral gavage (n=3).
as §2

[4] = female, 25 mg/kg, dog 2201F, day 1, Ibb 25 mg/kg QD dry-filled capsules
[5] = female, 25 mg/kg, dog 2201F, day 8, Ibb 25 mg/kg QD aqueous solution
[6] = female, 92 mg/kg, dog 3201F, day 1, Ibb 92 mg/kg QD dry-filled capsules
[7] = female, 250 mg/kg, dog 4201F, day 1, Ibb 250 mg/kg QD dry-filled capsules
[8] = male, 25 mg/kg, dog 2101M, day 1, Ibb 25 mg/kg QD dry-filled capsules
[9] = male, 25 mg/kg, dog 2101M, day 8, Ibb 25 mg/kg QD aqueous solution
[10] = male, 92 mg/kg, dog 3101M, day 1, Ibb 92 mg/kg QD dry-filled capsules
[11] = male, 250 mg/kg, dog 4101M, day 1, Ibb 250 mg/kg QD dry-filled capsules

Question: What does the source list for O=C(C(=O)N1CCN(C(=O)c2ccccc2)CC1)c1c[nH]c2c(-n3ccnn3)ncc(F)c12 [IVb]?
Answer: time post-second dose at which mean Cmax of parent was achieved ([1]; dogs, BID dosing of prodrug): 1 to 2 h; time post-dose at which mean Cmax of parent was achieved ([1]; dogs, once daily (QD) dosing of prodrug): 1 to 4 h; concentration at 24 h [1, 4]: 688 nM; concentration at 24 h [1, 5]: 107 nM; concentration at 24 h ([1]; female, 46 mg/kg, dog 3201F, day 8, Ibb 46 mg/kg BID dry-filled capsules): 307 nM; concentration at 24 h [1, 6]: 202 nM; concentration at 24 h ([1]; female, 125 mg/kg, dog 4201F, day 8, Ibb 125 mg/kg BID dry-filled capsules): 1960 nM; concentration at 24 h [1, 7]: 704 nM; AUC(0-inf) [1, 4]: 136 µM·h; half-life [1, 4]: 4.5 h; AUC(0-inf) [1, 5]: 139 µM·h; AUC(0-inf) ([1]; female, 46 mg/kg, dog 3201F, day 8, Ibb 46 mg/kg BID dry-filled capsules, emesis): 1050 µM·h; AUC(0-inf) ([1]; female, 92 mg/kg, dog 3201F, day 1, Ibb 92 mg/kg QD dry-filled capsules, emesis): 329 µM·h; half-life [1, 6]: 2.3 h; AUC(0-inf) ([1]; female, 125 mg/kg, dog 4201F, day 8, Ibb 125 mg/kg BID dry-filled capsules, emesis): 978 µM·h; AUC(0-inf) ([1]; female, 250 mg/kg, dog 4201F, day 1, Ibb 250 mg/kg QD dry-filled capsules, emesis): 745 µM·h; half-life [1, 7]: 3.2 h; concentration at 24 h [1, 8]: 8 nM; concentration at 24 h [1, 9]: 547 nM; concentration at 24 h ([1]; male, 46 mg/kg, dog 3101M, day 8, Ibb 46 mg/kg BID dry-filled capsules): 10600 nM; concentration at 24 h [1, 10]: 1900 nM; concentration at 24 h ([1]; male, 125 mg/kg, dog 4101M, day 8, Ibb 125 mg/kg BID dry-filled capsules): 54200 nM; concentration at 24 h [1, 11]: 2610 nM; AUC(0-inf) [1, 8]: 259 µM·h; half-life [1, 8]: 1.5 h; AUC(0-inf) [1, 9]: 324 µM·h; half-life [1, 9]: 3.3 h; AUC(0-inf) ([1]; male, 46 mg/kg, dog 3101M, day 8, Ibb 46 mg/kg BID dry-filled capsules, emesis): 478 µM·h; AUC(0-inf) ([1]; male, 92 mg/kg, dog 3101M, day 1, Ibb 92 mg/kg QD dry-filled capsules, emesis): 111 µM·h; half-life [1, 10]: 3.6 h; AUC(0-inf) ([1]; male, 125 mg/kg, dog 4101M, day 8, Ibb 125 mg/kg BID dry-filled capsules, emesis): 1390 µM·h; AUC(0-inf) ([1]; male, 250 mg/kg, dog 4101M, day 1, Ibb 250 mg/kg QD dry-filled capsules, emesis): 334 µM·h; half-life [1, 11]: 4.1 h; concentration at 24 h ([2]; 19 mg/kg (free acid)): 48 nM; concentration at 24 h ([2]; 64 mg/kg (free acid)): 290 nM; concentration at 24 h ([2]; 236 mg/kg (free acid)): 29000 nM; Cmax ([2]; 19 mg/kg): 58000 nM; AUC ([2]; 19 mg/kg): 283 µM·h; half-life ([2]; 19 mg/kg): 2.1 h; Cmax ([2]; 64 mg/kg): 135000 nM; AUC ([2]; 64 mg/kg): 997 µM·h; half-life ([2]; 64 mg/kg): 2.1 h; Cmax ([2]; 236 mg/kg): 290000 nM; AUC ([2]; 236 mg/kg): 3700 µM·h; half-life ([2]; 236 mg/kg): 5.8 h; time post-dose at which mean maximum plasma concentration (Cmax) was achieved ([2]; rats, single oral dose of prodrug): 1 to 3 h; Vdss ([3]; IV IVb 1 mg/kg, historical IVb): 0.49 ± 0.26 L/kg; bioavailability ([3]; Sprague-Dawley (rats), breed of dogs and monkeys not stated, plasma, po, range over rats, dogs and monkeys, read-out: oral bioavailabilities of parent after administration of prodrug): 50 to 310%; bioavailability ([3]; Sprague-Dawley, plasma, historical parent, PO 5 mg/kg, read-out: Bioavailability (%)): 60%; Tmax ([3]; Sprague-Dawley, plasma, historical parent, PO 5 mg/kg, read-out: Tmax (hr), PO): 4.7 h; AUC ([3]; in vivo, po, 5 mg/kg): 86 ± 33 µM·h; Cmax ([3]; in vivo, po, 5 mg/kg): 9500 ± 2800 nM; half-life ([3]; male, Sprague-Dawley, plasma, iv, […]): 3 ± 1.8 h; bioavailability ([3]; male, Sprague-Dawley, plasma, oral prodrug, calculated from historical IV data of parent, read-out: Bioavailability (%) of parent from prodrug): 50%; Tmax ([3]; male, Sprague-Dawley, plasma, parent after oral prodrug (~5-6 mg/kg parent equivalent), read-out: Tmax (hr), PO): 0.83 h; Cmax ([3]; male, Sprague-Dawley, plasma, po, 6.6 mg/kg): 19000 ± 1800 nM; Tmax ([3]; male, Sprague-Dawley, plasma, po, 6.6 mg/kg, read-out: Tmax): 0.83 ± 0.14 h; AUC ([3]; plasma, iv, 1 mg/kg): 24 ± 3.2 µM·h; MRT ([3]; plasma, iv, 1 mg/kg, read-out: MRT): 5.6 ± 3.6 h; half-life ([3]; plasma, iv, 1 mg/kg): 5.9 ± 4.9 h; concentration at 24 h ([3]; plasma, oral, 5 mg/kg, read-out: C-24 hr): 160 nM; bioavailability ([3]; plasma, po, 5 mg/kg, read-out: Bioavailability): 60%; half-life ([3]; plasma, po, 5 mg/kg): 3.7 ± 0.86 h; Tmax ([3]; plasma, po, 5 mg/kg, read-out: Tmax): 4.7 ± 1.2 h
